Data reported in patent US6350745B1, “Thrombin inhibitors” (Merck & Co., Inc., priority 1999, dated 2002).

Biological target: human α-thrombin (Homo sapiens, UniProt P00734)
Assay: In vitro assay for determining proteinase inhibition (thrombin)
Assay type: biochemical
Conditions: 25° C., 0.05 M TRIS buffer pH 7.4, 0.15 M NaCl, 0.1% PEG
Description: In vitro Assay for Determining Proteinase Inhibition
Assays of human α-thrombin and human trypsin were performed by the methods substantially as described in Thrombosis Research, Issue No. 70, page 173 (1993) by S. D. Lewis et al.
The assays were carried out at 25° C. in 0.05 M TRIS buffer pH 7.4, 0.15 M NaCl, 0.1% PEG. Trypsin assays also contained 1 mM CaCl2. In assays wherein rates of hydrolysis of a p-nitroanilide (pna) substrate were determined, a Thermomax 96-well plate reader was used was used to measure (at 405 nm) the time dependent appearance of p-nitroaniline. sar-PR-pna was used to assay human […]thrombin (Km=125 μM) and bovine trypsin (Km=125 μM). p-Nitroanilide substrate concentration was determined from measurements of absorbance at 342 nm using an extinction coefficient of 8270 cm^−1 M^−1.
In certain studies with potent inhibitors (Ki<10 nM) where the degree of inhibition of thrombin was high, a more sensitive activity assay was employed. […]
Activity assays were performed by diluting a stock solution of substrate at least tenfold to a final concentration ≦0.1 Km into a solution containing enzyme or enzyme equilibrated with inhibitor. Times required to achieve equilibration between enzyme and inhibitor were determined in control experiments. Initial velocities of product formation in the absence (Vo) or presence of inhibitor (Vi) were measured. […]

Ki: < 0.1 µM
Structure (SMILES): Cc1cc2c(c(=O)n1CC(=O)NCc1ncccc1F)NC(=O)OC2(CC1CC1)CC1CC1 [compound 3-1]
